Data as given in publication PMC9668655 (Computational and Structural Biotechnology Journal, 2022).

How the values were obtained:
[1] = test system: RSL-MOA; assay type: binding, Ralstonia nicotianae; Marasmius oreades; details: 50 nM RSL-MOA pre-incubated with fucose; 10 mM HEPES pH 7.5, 100 mM NaCl, 0.05 % Tween 20, 25 °C; RSL site; competitive with immobilised fucose
[2] = molecular target: RSL (Ralstonia pseudosolanacearum, UniProt Q8XXK6); details: 250 µM; 250 μM ligand, 25 μM protein; absolute Tm1, not a shift (ligand-free reference in the 2nd table, row 4); 20 mM Tris/HCl pH 7.5, 100 mM NaCl
[3] = molecular target: RSL-MOA; assay type: binding, Ralstonia nicotianae; Marasmius oreades; details: 20 mM Tris/HCl pH 7.5, 100 mM NaCl, 25 °C, one-site model, titrated into the RSL-MOA/Galα1-3Gal complex

## C[C@@H]1OC(O)[C@@H](O)[C@H](O)[C@@H]1O (stereo partly drawn) [L-fucose]
[1]
  IC50: 7.8 µM

## CO[C@@H]1O[C@@H](C)[C@@H](O)[C@@H](O)[C@@H]1O [α-methyl fucoside]
[2]
  Tm1 (°C): 101.6 °C
[3]
  Kd: 400 nM
